We go through two compounds from patent US20180344680A1, “COMPOSITIONS AND METHODS FOR TREATMENT, AMELIORATION, AND PREVENTION OF DIABETES-RELATED SKIN ULCERS” (THE ARIZONA BOARD OF REGENTS ON BEHALF OF THE UNIVERSITY OF …, priority 2015, published 2018).

Entries after “also recorded” stand apart in the source; their conditions may differ.

The subject of test [1] is wounds of non-diabetic Nrf2+/+ mice. Nature of the test: Wound closure in non-diabetic mice. The following applies: non-diabetic Nrf2+/+ mice treated with SF or CA vs corn oil; up to 14 days. It counts as in vivo, mouse. From the text: Diabetes mouse model and treatments. Nrf2^+/+ and Nrf2^-/- C57BL/6 mice were described previously (see, e.g., Jiang T, et al., Diabetes 59:850-860, 2010) and were housed and handled in accordance with the University of Arizona Institutional Animal Care policies. The STZ-induced diabetic model was previously described (see, e.g., Zheng H, et al., Diabetes 60:3055-3066, 2011) and only 8 week old male mice were included in this study. Briefly, three weeks after STZ injections, fasting glucose levels (FGL, 4 h fast) were measured using the AlphaTRAK system (Abbott Laboratory, North Chicago, Ill.) and mice with a FGL higher than or equal to 250 mg/dL were considered diabetic and included in the study (see, e.g., FIG. 2A and FIG. 3A for a detailed timeline). The mice (n=5-8) were then allocated randomly to each of the indicated treatment groups and received corn oil (control), 12.5 mg/kg SF or 50 mg/kg CA intraperitoneally every two days until skin tissues were harvested. One week after the treatments, the mice were anesthetized, their backs were shaved and cleaned. Two wounds were made with a sterile 6 mm skin biopsy punch (Health link, Jacksonville, Fla.) and covered with 3M Tegaderm pads. […] Gross wound closure was quantified by ImageJ software, and wound healing was expressed as the percentage of the original wound area that had healed. […]

A short description of test [2]: Body weight and blood glucose in STZ-induced diabetic mice. It counts as in vivo, mouse. The following applies: diabetic Nrf2+/+ mice; 12.5 mg/kg SF or 50 mg/kg CA intraperitoneally every other day; vs untreated STZ.
Protocol: Diabetes mouse model and treatments. […] Briefly, three weeks after STZ injections, fasting glucose levels (FGL, 4 h fast) were measured using the AlphaTRAK system (Abbott Laboratory, North Chicago, Ill.) and mice with a FGL higher than or equal to 250 mg/dL were considered diabetic and included in the study (see, e.g., FIG. 2A and FIG. 3A for a detailed timeline). The mice (n=5-8) were then allocated randomly to each of the indicated treatment groups and received corn oil (control), 12.5 mg/kg SF or 50 mg/kg CA intraperitoneally every two days until skin tissues were harvested.
After induction of diabetes using STZ, diabetic Nrf2^+/+ mice were intraperitoneally injected with corn oil (vehicle control), 12.5 mg/kg SF, or 50 mg/kg CA every other day for 1 week, then the wound surgery was performed and the treatment continued for 2 more weeks (FIG. 3A).
The test system of test [3] is NRF2 pathway. Nature of the test: Immunoblot of NRF2 pathway in HaCaT cells under high glucose. Conditions: HaCaT in high glucose (HG); 5 μmol/L SF or 20 μmol/L CA; 48 h. Type of test: cell-based, human. The protocol: Human immortalized keratinocytes HaCaT were obtained from the Arizona Cancer Center (see, e.g., Boukamp P, et al., J Cell Biol 106:761-771, 1988). Cells were grown in Dulbecco's modified Eagle's medium (DMEM) containing low glucose (LG, 5.5 mmol/L) and 10% fetal bovine serum (FBS) in an incubator at 37° C. with 5% CO2. For the experiments, the cells were starved in serum-free LG DMEM for 24 h, then either maintained in LG DMEM or switched to high glucose (HG, 25 mmol/L) DMEM for 2 days (see, e.g., Zheng H, et al., Diabetes 60:3055-3066, 2011; Lan C C, et al., Br J Dermatol 159:1103-1115, 2008). For the treatments, the cells were dosed with 5 μmol/L SF or 20 μmol/L CA.
siRNA transfections. HaCaT cells were transfected with either a non-specific, control small interfering RNA (Con-siRNA, #1027281, Qiagen, Valencia, Calif.) or an NRF2-specific siRNA (#S100657937) using the HiPerfect transfection reagent (Qiagen) according to the manufacturer's instructions. Briefly, cells were maintained in LG or HG DMEM for 2 days and then transfected with either control or NRF2 siRNA for migration, proliferation, and apoptosis experiments. For the ROS detection, cells were maintained in LG DMEM and transfected with either control or NRF2 siRNA; 24 h later, the cells were switched to HG DMEM and treated as indicated.
Cultured HaCaT cells were harvested in 1× sample buffer (50 mM Tris-HCl pH 6.8, 2% sodium dodecyl sulfate (SDS), 10% glycerol, 100 mM dithiothreitol (DTT), 0.1% bromophenol blue), boiled and sonicated. Total cell lysates were resolved by SDS-PAGE and subjected to immunoblot analyses with the indicated antibodies. For the detection of the secreted proteins TGF-β1 and MMP9, cells were incubated 24 h in serum-free media before harvesting the medium. TGF-β1 was measured using the Quantikine human TGF-β1 immunoassay kit (R&D systems; Minneapolis, Minn.) according to the manufacturer's instructions. The absorbance at 450 nm was measured using a Synergy 2 microplate reader (BioTek, Winooski, Vt.) and the amount of TGF-β1 was calculated by standard curve. MMP9 activity was evaluated by gelatin zymography as described elsewhere (see, e.g., Toth M, et al., Methods Mol Biol 878:121-135, 2012; Zhu P, et al., Exp Dermatol 21:123-129, 2012). Briefly, the supernatant was concentrated using Amicon Ultra-0.5 mL centrifugal filters (Merck Milipore, Darmstadt, Germany) (10 kDa cut off), mixed with non-reducing sample buffer and subjected to electrophoresis in 10% polyacrylamide-0.1% w/v gelatin gels. The gels were then washed in 2.5% Triton X-100 to remove SDS and incubated with developing buffer (50 mM Tris-HCl, pH 7.6, 1 μM ZnCl2 and 5 mM CaCl2) at 37° C. for 36 h. Gels were subsequently stained with 0.2% Coomassie blue and were analyzed with ImageJ.

Test [4] has as its system wounds of STZ-induced diabetic Nrf2+/+ mice. Nature of the test: Wound closure in STZ-induced diabetic mouse model. Type of test: in vivo. Conditions: for wound closure / diameter of granulation tissue between the flanking hair follicles: STZ mice; for wound closure: 12.5 mg/kg SF or 50 mg/kg CA i.p. every other day, up to 14 days after wound surgery, vs untreated STZ; for diameter of granulation tissue between the flanking hair follicles: day 14 post-surgery, histological examination. From the text: Diabetes mouse model and treatments. Nrf2^+/+ and Nrf2^-/- C57BL/6 mice were described previously (see, e.g., Jiang T, et al., Diabetes 59:850-860, 2010) and were housed and handled in accordance with the University of Arizona Institutional Animal Care policies. The STZ-induced diabetic model was previously described (see, e.g., Zheng H, et al., Diabetes 60:3055-3066, 2011) and only 8 week old male mice were included in this study. Briefly, three weeks after STZ injections, fasting glucose levels (FGL, 4 h fast) were measured using the AlphaTRAK system (Abbott Laboratory, North Chicago, Ill.) and mice with a FGL higher than or equal to 250 mg/dL were considered diabetic and included in the study (see, e.g., FIG. 2A and FIG. 3A for a detailed timeline). The mice (n=5-8) were then allocated randomly to each of the indicated treatment groups and received corn oil (control), 12.5 mg/kg SF or 50 mg/kg CA intraperitoneally every two days until skin tissues were harvested. One week after the treatments, the mice were anesthetized, their backs were shaved and cleaned. Two wounds were made with a sterile 6 mm skin biopsy punch (Health link, Jacksonville, Fla.) and covered with 3M Tegaderm pads. The wounds were photographed using an in vivo imaging system and an infrared integrated system ([…], Northampton, UK) for 14 days. Gross wound closure was quantified by ImageJ software, and wound healing was expressed as the percentage of the original wound area that had healed. The tissues were collected using an 8 mm skin biopsy punch; one half was fixed in 10% buffered formalin and embedded in paraffin while the other half was used for protein extraction. For the experiments in non-diabetic mice (FIG. 9), mice were injected with sodium citrate buffer and randomly allocated to the treatment groups (n=3-5). Wounds and tissue collection were performed as described above.

Take `O=CC=Cc1ccccc1` [CA, Cinnamaldehyde]: the wound closure entry in test [1] is given as “No statistically significant differences; also recorded: do not show accelerated wound closure”. Moreover, in test [2], the blood glucose levels result was “failed to decrease blood glucose levels” and the body weight result is listed as “reversed the body weight loss during the initial phase of diabetes”. In test [3], the “protein levels of HO-1, AKR1C1, and NQO1” value is reported as “further induced”; the “protein levels of NRF2” value is listed as “further NRF2 induction”. In test [4], the wound closure entry was “accelerated wound closure” and the “diameter of granulation tissue between the flanking hair follicles” value was “markedly reduced”.

With `C[S@@+]([O-])CCCCN=C=S` [SF, L-sulforaphane], the wound closure result in test [1] is listed as “No statistically significant differences; also recorded: do not show accelerated wound closure”. Moreover, in test [2], the blood glucose levels result is reported as “failed to decrease blood glucose levels” and the body weight result is “reversed the body weight loss during the initial phase of diabetes”. In test [3], the “protein levels of HO-1, AKR1C1, and NQO1” value is recorded as “further induced”; the “protein levels of NRF2” value was “further NRF2 induction”. In test [4], the wound closure result was “accelerated wound closure” and the “diameter of granulation tissue between the flanking hair follicles” value is “markedly reduced”. Also, the “wound closure compared with non-diabetic Con mice” value in test [4] (STZ+SF mice, during the first 7 days) is “even faster than that of the Con mice”.
